Read-outs that look alike come from different tables or passages of the source.
Legend:
[1] = Method: The estimation of parameters, including fixed and random effects, was conducted using first-order conditional estimation with the interaction method. This enables modelling of the interaction between the IIV in PK parameters and the residual variability (RV) in measured concentrations. […] Each model adhered to first-order kinetics, except the zero-order infusion processes. Each PK parameter in the model was described by the equation θi = θ × exp (ηi), where θ denotes the typical value of the PK parameter, θi is the individual PK parameter value for each participant, and ηi is a random variable encapsulating IIV. We hypothesised that IIV is normally distributed, with a mean of zero and variance ω^2. RV was modelled as normally distributed with a mean of zero and a variance σ^2. Additionally, we evaluated additive, proportional, and combined additive-proportional error models. The methods used to select and validate models encompassed several criteria: variations in NONMEM objective function values (OFVs), the accuracy of parameter estimates as reflected by relative standard errors, goodness-of-fit plots, VPC, and bootstrap evaluations. […] Model validation processes included the creation of conditional weighted residual plots versus time and against population predictions (PRED), in addition to comparisons between observed data and both PRED and individual predictions. […] The variability in the final model predictions was analysed using the median and 95% confidence intervals from 2000 bootstrap replicates. We identified significant covariates influencing pharmacokinetic (PK) parameters through a process of stepwise forward selection and backward elimination, with inclusion thresholds of p < 0.01 (ΔOFV < −6.635) and exclusion thresholds of p < 0.001 (ΔOFV > 10.83) for single degree-of-freedom tests. Covariates were assessed for both their statistical and clinical relevance, taking into account demographic factors (such as gender, age, weight, height, body mass index, and body surface area) and biochemical markers (including serum protein, albumin, creatinine, and cystatin C levels). […] We utilised Perl-speaks-NONMEM (PSN, version 5.3.1, [https://uupharmacometrics.github.io/PsN], accessed on 13 April 2023) for covariate identification, VPC execution, and nonparametric bootstrapping to evaluate model robustness. Data analysis and graphical outputs were conducted using the R programming environment (version 4.4.0, [www.rproject.org], Vienna, Austria, accessed on 6 June 2024).
[2] = cited from earlier work; for average AUC: critically ill patients, daily dose 30 mg/kg
Remark: listed apart in the source
[3] = final model, 2000 bootstrap replicates
[4] = final model, Q = θ5 × (WT/69.45)^θ6
[5] = final model, V2 = θ7 × (BSA/1.80)^θ8
[6] = healthy adults n = 12, 1 g i.v. over 2 h, plasma, NCA, mean (CV%)
[7] = healthy adults n = 12, 1 g i.v. over 2 h, plasma, NCA, median (IQR)

## C[C@@H](O)[C@H]1C(=O)N2C(C(=O)O)=C(S[C@@H]3CN[C@H](C(=O)N(C)C)C3)[C@H](C)[C@H]12 [meropenem]
[1]; in vivo
  V1, Estimates: 15.1 L
  V2, Estimates: 26.2 L

## CN[C@H](CC(C)C)C(=O)N[C@H]1C(=O)N[C@@H](CC(N)=O)C(=O)N[C@H]2C(=O)N[C@H]3C(=O)N[C@H](C(=O)N[C@H](C(=O)O)c4cc(O)cc(O)c4-c4cc3ccc4O)[C@H](O)c3ccc(c(Cl)c3)Oc3cc2cc(c3O[C@@H]2O[C@H](CO)[C@@H](O)[C@H](O)[C@H]2O[C@H]2C[C@](C)(N)[C@H](O)[C@H](C)O2)Oc2ccc(cc2Cl)[C@H]1O [vancomycin]
[2]; ICU patients, CLCR 130 mL/min
  vancomycin clearance: 6.20 L/h
[2]; ICU patients, CLCR 180 mL/min
  vancomycin clearance: 8.61 L/h
[2]; critically ill ARC patients, average CLCR 180.8 mL/min
  vancomycin clearance: 9.7 L/h
[2]; critically ill non-ARC patients, average CLCR 103.4 mL/min
  vancomycin clearance: 6.5 L/h
[2]; 139 patients with augmented renal clearance (ARC)
  average AUC: 232.9 mg·h/L
[2]; 141 patients without ARC
  average AUC: 316.2 mg·h/L
[2]; patients with ARC
  vancomycin clearance: 5.55 L/h
[2]; patients with non-ARC
  vancomycin clearance: 4.04 L/h
[2]; patients with thermal or inhalation injuries, TBSA burns 10–19%
  vancomycin clearance: 8.2 L/h
[2]; patients with thermal or inhalation injuries, TBSA burns 20–29%
  vancomycin clearance: 8.9 L/h
[2]; patients with thermal or inhalation injuries, TBSA burns < 10%
  vancomycin clearance: 6.9 L/h
[1]; final model typical CL 8.83 L/h expressed per kg, healthy adults with normal renal function
  clearance rate per kg: 0.127 L/h/kg
[1]; [3]
  θ1, typical total clearance CL, Bootstrap Median (95% CI): 8.78 (8.14–9.6) L/h
  θ4, central volume of distribution V1, Bootstrap Median (95% CI): 12.8 (3.94–19.6) L
  θ5, intercompartmental clearance Q, Bootstrap Median (95% CI): 20.4 (16.8–28.2) L/h
  θ6, exponent of weight on Q, Bootstrap Median (95% CI): 2.31 (1.36–3.35)
  θ7, peripheral volume of distribution V2, Bootstrap Median (95% CI): 27.8 (25.0–31.0) L
  θ8, exponent of BSA on V2, Bootstrap Median (95% CI): 3.13 (1.79–3.73)
[1]; final model, CL = θ1 × (WT/69.45)^θ2 × (AGE/38.5)^θ3, 12 healthy adults
  θ1, typical total clearance CL, Estimates: 8.83 L/h
[1]; [4]
  θ5, intercompartmental clearance Q, Estimates: 20.2 L/h
  θ6, exponent of weight on Q, Estimates: 2.38
[1]; final model, V1 = θ4
  θ4, central volume of distribution V1, Estimates: 12.9 L
[1]; [5]
  θ7, peripheral volume of distribution V2, Estimates: 27.4 L
  θ8, exponent of BSA on V2, Estimates: 3.09
[1]; individual parameters from population PK, central volume of distribution, n = 12, mean (CV%)
  VC, Mean (CV%): 0.211 (48.0) L/kg
[1]; individual parameters from population PK, central volume of distribution, n = 12, median (IQR)
  VC, Median (IQR): 0.163 (0.144–0.251) L/kg
[1]; individual parameters from population PK, distribution phase half-life, n = 12, mean (CV%)
  t1/2α, Mean (CV%): 0.270 (42.7) h
[1]; individual parameters from population PK, dose/CL, 1 g, n = 12, mean (CV%)
  AUCtau, Mean (CV%): 113 (28.9) mg·h/L
[1]; individual parameters from population PK, dose/CL, 1 g, n = 12, median (IQR)
  AUCtau, Median (IQR): 111 (81.9–137) mg·h/L
[1]; individual parameters from population PK, elimination phase half-life, n = 12, mean (CV%)
  t1/2β, Mean (CV%): 3.88 (12.5) h
[1]; individual parameters from population PK, steady-state volume of distribution, n = 12, mean (CV%)
  Vss, Mean (CV%): 0.611 (16.5) L/kg
[1]; individual parameters from population PK, steady-state volume of distribution, n = 12, median (IQR)
  Vss, Median (IQR): 0.593 (0.565–0.650) L/kg
[1]; individual parameters from population PK, total clearance, healthy adults n = 12, 1 g i.v. over 2 h, mean (CV%)
  CL, Mean (CV%): 0.135 (17.0) L/h/kg
[1]; individual parameters from population PK, total clearance, healthy adults n = 12, median (IQR)
  CL, Median (IQR): 0.131 (0.117–0.144) L/h/kg
[1]; two-compartment base model
  Q, Estimates: 17.8 L/h
Healthy Korean adults n = 12, single 1 g i.v. infusion over 2 h, plasma, LC-MS/MS, NCA, mean (CV%)
  Cmax, Mean (CV%): 23.4 (34.4) mg/L
Healthy Korean adults n = 12, single 1 g i.v. infusion over 2 h, plasma, LC-MS/MS, NCA, median (IQR)
  Cmax, Median (IQR): 20.8 (17.0–27.1) mg/L
[6]
  AUCinf, Mean (CV%): 106 (30.5) mg·h/L
  AUClast, Mean (CV%): 78.7 (28.2) mg·h/L
  AUMCinf, Mean (CV%): 667 (40.0) mg·h^2/L
  AUMClast, Mean (CV%): 289 (26.7) mg·h^2/L
  MRTinf, Mean (CV%): 5.12 (18.9) h
[7]
  AUCinf, Median (IQR): 97.1 (76.1–140) mg·h/L
  AUClast, Median (IQR): 73.6 (58.5–90.4) mg·h/L
  AUMCinf, Median (IQR): 587 (464–807) mg·h^2/L
  AUMClast, Median (IQR): 279 (217–341) mg·h^2/L
  MRTinf, Median (IQR): 4.98 (4.46–5.60) h
steady-state Vd by NCA, healthy adults n = 12, 1 g i.v. over 2 h, mean (CV%)
  VssNCA, Mean (CV%): 0.730 (15.7) L/kg
steady-state Vd by NCA, healthy adults n = 12, 1 g i.v. over 2 h, median (IQR)
  VssNCA, Median (IQR): 0.714 (0.650–0.802) L/kg
Terminal elimination half-life, NCA, healthy adults n = 12, 1 g i.v. over 2 h, mean (CV%)
  t1/2λz, Mean (CV%): 3.87 (21.3) h
Terminal elimination half-life, NCA, healthy adults n = 12, 1 g i.v. over 2 h, median (IQR)
  t1/2λz, Median (IQR): 3.58 (3.34–4.25) h
Total body clearance by NCA, healthy adults n = 12, 1 g i.v. over 2 h, mean (CV%)
  CLNCA, Mean (CV%): 0.146 (19.8) L/h/kg
Total body clearance by NCA, healthy adults n = 12, 1 g i.v. over 2 h, median (IQR)
  CLNCA, Median (IQR): 0.135 (0.128–0.160) L/h/kg
Volume of distribution by NCA, healthy adults n = 12, 1 g i.v. over 2 h, mean (CV%)
  VzZNCA, Mean (CV%): 0.793 (15.4) L/kg
Volume of distribution by NCA, healthy adults n = 12, 1 g i.v. over 2 h, median (IQR)
  VzZNCA, Median (IQR): 0.806 (0.701–0.873) L/kg

— article PMC11504268 (Antibiotics, 2024)
